Our source for the IC50 values is US20230331675A1, “AROMATIC ETHYLENE COMPOUND AND PREPARATION METHOD THEREFOR, AND INTERMEDIATE, PHARMACEUTICAL COMPOSITION, AND APPLICATION THEREOF” (GUANGZHOU MAXINOVEL PHARMACEUTICALS CO., LTD., priority 2020, published 2023).

Some results are limits rather than exact numbers.

The target of this assay is PD-1/PD-L1 (Homo sapiens (Human), UniProt Q9NZQ7). Put plainly: Homogeneous time-resolved fluorescence (HTRF) binding assay. Particulars: CisBio kit, read-out: IC50 of compounds binding to PD-1/PD-L1. An excerpt: Effect embodiment 1: Homogenouse time-resolved fluorescence
PD-1/PD-L1, sequence (Q9NZQ7 19-238): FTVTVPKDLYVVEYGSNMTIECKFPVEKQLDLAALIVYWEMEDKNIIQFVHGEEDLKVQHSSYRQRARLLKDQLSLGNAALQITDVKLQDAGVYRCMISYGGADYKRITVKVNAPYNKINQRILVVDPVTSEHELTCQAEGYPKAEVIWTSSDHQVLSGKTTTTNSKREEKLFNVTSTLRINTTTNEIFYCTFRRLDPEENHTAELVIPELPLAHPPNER
Homogeneous time-resolved fluorescence (HTRF) binding assay was used to determine the binding ability of the compound of the present disclosure to PD-1/PD-L1.
The purchased kit (CisBio, #64CUS000C-1) contained reagents required for assays such as PD-1, PD-L1, anti-tag1-Eu, Anti-tag2-XL665, dilute buffer, and detection buffer.
1. The compound was formulated to 10 concentrations with a 3-fold gradient with 100% DMSO.
2. The DMSO solution of the compound was added to the dilute buffer, mixed thoroughly, then transferred to a 96-well plate.
3. PD-L1 was diluted with dilute buffer, then added to the above 96-well plate.
4. PD-1 was diluted with dilute buffer and added to the above 96-well plate, which was then incubated at room temperature for 30 minutes.
5. A portion of anti-tag1-Eu and a portion of anti-tag2-XL665 were added to the detection buffer, mixed thoroughly and transferred to the above 96-well plate.
6. The mixture in the above 96-well plate was incubated at room temperature for 1 to 24 hours.
7. HTRF values were read with Envision.
As for “(S,E)-1-(2-((3-Iodobenzyloxy)-5-methyl-4-(2-(2-methyl-[1,1′-biphenyl]-3-yl)vinyl)benzyl)piperidine-2-carboxylic acid [Compound 75]”, the IC50 is 28.4 nM.

As for `CS(=O)(=O)CCCOc1cc(/C=C/c2cccc(-c3ccccc3)c2C#N)c(CN2CCOC[C@H]2C(=O)O)cc1Cl` [Compound 37], the IC50 was > 10000 nM.

With `COc1cc(/C(Br)=C/c2cccc(-c3ccccc3)c2C)c(C(F)(F)F)cc1CN1CCCC[C@H]1C(=O)O` [Compound 67, (S,Z)-1-(4-(1-Bromo-2-(2-methyl-[1,1′-biphenyl]-3-yl)vinyl)-2-methoxy-5-trifluoromethylbenzyl)piperidine-2-carboxylic acid], the IC50 came out at 12.8 nM.

For the compound `N#Cc1c(/C=C/c2cc(CO)c(CN3CCCC[C@H]3C(=O)O)cc2C(F)(F)F)cccc1-c1ccccc1` [Compound 20, (S,E)-1-(4-(2-(2-Cyano-[1,1′-biphenyl]-3-yl)vinyl)-2-hydroxymethyl-5-trifluoromethylbenzyl)piperidine-2-carboxylic acid], the IC50 amounted to 3.7 nM.

On to `COc1cc(/C=C/c2cccc(-c3ccccc3)c2Cl)c(C(F)(F)F)cc1CN1CCCC[C@H]1C(=O)O` [Compound 71, (S,E)-1-(4-(2-(2-Chloro-[1,1′-biphenyl]-3-yl)vinyl)-2-methoxy-5-trifluoromethylbenzyl)piperidine-2-carboxylic acid], for which the IC50 is 0.68 nM.

As for `Cc1c(/C=C/c2cc(OCCCF)c(CN3CCCC[C@H]3C(=O)O)cc2C(F)(F)F)cccc1-c1ccccc1` [Compound 86, (S,E)-1-(2-(3-Fluoropropoxy)-4-(2-(2-methyl-[1,1′-biphenyl]-3-yl)vinyl)-5-(trifluoromethyl)benzyl)piperidine-2-carboxylic acid], the IC50 turned out to be 3.58 nM.

Turning to `Cc1cc(OCCO)c(CN2CCOC[C@H]2C(=O)O)cc1/C=C/c1cccc(-c2ccccc2)c1C#N` [Compound 42, (S,E)-4-(5-(2-(2-Cyano-[1,1′-biphenyl]-3-yl)vinyl)-2-(2-hydroxyethoxy)-4-methylbenzyl)morpholine-3-carboxylic acid], the IC50 turned out to be 706 nM.

Take `COc1cc(/C=C(\Br)c2cccc(-c3ccccc3)c2C)c(C)cc1CNCCO` [Compound 69, (Z)-2-((4-(2-Bromo-2-(2-methyl-[1,1′-biphenyl]-3-yl)vinyl)-2-methoxy-5-methylbenzyl)amino)-1-ethanol]: the IC50 was found to be 260 nM.

Turning to `Cc1c(/C=C/c2cc(OCCCCF)c(CN3CCCC[C@H]3C(=O)O)cc2C(F)(F)F)cccc1-c1ccccc1` [Compound 85, (S,E)-1-(2-(4-Fluorobutoxy)-4-(2-(2-methyl-[1,1′-biphenyl]-3-yl)vinyl)-5-(trifluoromethyl)benzyl)piperidine-2-carboxylic acid], the IC50 amounted to 4.34 nM.

As for `Cc1cc(/C=C/c2cccc(-c3ccccc3)c2C)c(Cl)cc1CN1CCOC[C@H]1C(=O)O` [Compound 22, (S,E)-4-(5-Chloro-2-methyl-4-(2-(2-methyl-[1,1′-biphenyl]-3-yl)vinyl)benzyl)morpholine-3-carboxylic acid], the IC50 stood at 11.4 nM.

For the compound `Cc1ccc(OCCCCC#N)c(CN2CCCC[C@H]2C(=O)O)c1/C=C/c1cccc(-c2ccccc2)c1C#N` [Compound 45, (S,E)-1-(2-(2-(2-Cyano-[1,1′-biphenyl]-3-yl)vinyl)-6-(4-cyanobutoxy)-3-methylbenzyl)piperidine-2-carboxylic acid], the IC50 was > 10000 nM.

For the compound `Cc1cc(CN2CCOC[C@H]2C(=O)O)c(C)cc1/C=C/c1cccc(-c2ccccc2)c1C#N` [Compound 11, (S,E)-4-(4-(2-(2-Cyano-[1,1′-biphenyl]-3-yl)vinyl)-2,5-dimethylbenzyl)morpholine-3-carboxylic acid], the IC50 came out at 10.1 nM.

Turning to `Cc1cc(CN2CCCC[C@H]2C(=O)O)c(C)cc1/C=C/c1cccc(-c2ccccc2)c1C#N` [Compound 10], the IC50 turned out to be 4.2 nM.

On to `Cc1cc(CN2CCCC[C@H]2C(=O)O)c(O)cc1/C=C/c1cccc(-c2ccccc2)c1C#N` [Compound 31, (S,E)-1-(4-(2-(2-Cyano-[1,1′-biphenyl]-3-yl)vinyl)-2-hydroxy-5-methylbenzyl)piperidine-2-carboxylic acid], for which the IC50 was found to be 1160 nM.

Turning to `Cc1cc(OCCO)c(CN2CCCC[C@H]2C(=O)O)cc1/C=C/c1cccc(-c2ccccc2)c1C#N` [Compound 41, (S,E)-1-(5-(2-(2-Cyano-[1,1′-biphenyl]-3-yl)vinyl)-2-(2-hydroxyethoxy)-4-methylbenzyl)piperidine-2-carboxylic acid], the IC50 is 281 nM.

Regarding `COc1cc(/C=C/c2cccc(-c3ccccc3)c2C)c(C(F)(F)F)cc1CN1CCCC[C@@H]1C(=O)O` [Compound 62, (R,E)-1-(2-Methoxy-4-(2-(2-methyl-[1,1′-biphenyl]-3-yl)vinyl)-5-trifluoromethylbenzyl)piperidine-2-carboxylic acid], the IC50 was 7.42 nM.

As to `COc1cc(CN2CCCC[C@H]2C(=O)O)c(OC)cc1/C=C/c1cccc(-c2ccccc2)c1C` [Compound 63, (S,E)-1-(2,5-Dimethoxy-4-(2-(2-methyl-[1,1′-biphenyl]-3-yl)vinyl)benzyl)piperidine-2-carboxylic acid], the IC50 was 30.5 nM.

On to `COCCOc1cc(C)c(/C=C/c2cccc(-c3ccccc3)c2C#N)cc1CN1CCOC[C@H]1C(=O)O` [Compound 44, (S,E)-4-(5-(2-(2-Cyano-[1,1′-biphenyl]-3-yl)vinyl)-2-(2-methoxyethoxy)-4-methylbenzyl)morpholine-3-carboxylic acid], for which the IC50 was 265 nM.

For the compound `COCc1cc(/C=C/c2cccc(-c3ccccc3)c2C#N)c(C(F)(F)F)cc1CN1CCCC[C@H]1C(=O)O` [Compound 49, (S,E)-1-(4-(2-(2-Cyano-[1,1′-biphenyl]-3-yl)vinyl)-2-(methoxymethyl)-5-trifluoromethylbenzyl)piperidine-2-carboxylic acid], the IC50 is 18.6 nM.

`Cc1cc(CN[C@@](C)(CO)C(=O)O)c(C)cc1/C=C/c1cccc(-c2ccccc2)c1C#N` [Compound 12, (S,E)-2-((4-(2-(2-Cyano-[1,1′-biphenyl]-3-yl)vinyl)-2,5-dimethylbenzyl)amino)-3-hydroxy-2-methylpropionic acid]: the IC50 was determined as 3.4 nM.

Regarding `Cc1cc(CN2CCCC[C@H]2C(=O)O)c(OCCCF)cc1/C=C/c1cccc(-c2ccccc2)c1C` [Compound 84, (S,E)-1-(2-(3-Fluoropropoxy)-5-methyl-4-(2-(2-methyl-[1,1′-biphenyl]-3-yl)vinyl)benzyl)piperidine-2-carboxylic acid], the IC50 is 8.03 nM.

Regarding `COc1cc(/C(F)=C/c2cccc(-c3ccccc3)c2C)c(C(F)(F)F)cc1CNCCO` [Compound 65, (Z)-2-((4-(1-Fluoro-2-(2-methyl-[1,1′-biphenyl]-3-yl)vinyl)-2-methoxy-5-trifluoromethylbenzyl)amino)-1-ethanol], the IC50 came to 48 nM.

Take `Cc1cc(/C=C/c2cccc(-c3ccccc3)c2C)c(Cl)cc1CN1CCCC[C@H]1C(=O)O` [Compound 5, (S,E)-1-(5-Chloro-2-methyl-4-(2-(2-methyl-[1,1′-biphenyl]-3-yl)vinyl)benzyl)piperidine-2-carboxylic acid]: the IC50 came out at 6.5 nM.

On to “(S,E)-2-((5-Chloro-2-(2-(2-cyano-[1,1′-biphenyl]-3-yl)vinyl)-4-(3-methylsulfonyl)propoxy)benzyl)amino)-3-hydroxy-2-methylpropionic acid [Compound 38]”, for which the IC50 was 298 nM.

In the case of `[2H]C([2H])([2H])c1c(/C=C/c2cc(CN[C@@](C)(CO)C(=O)O)ccc2C(F)(F)F)cccc1-c1ccccc1` [Compound 55], the IC50 stood at 29.5 nM.

Turning to `N#CCOc1cc(/C=C/c2cccc(-c3ccccc3)c2C#N)c(CN2CCCC[C@H]2C(=O)O)cc1Cl` [Compound 47, (S,E)-1-(5-Chloro-2-(2-(2-cyano-[1,1′-biphenyl]-3-yl)vinyl)-4-(cyanomethoxy)benzyl)piperidine-2-carboxylic acid], the IC50 was > 10000 nM.

For `CS(=O)(=O)CCCOc1cc(/C=C/c2cccc(-c3ccccc3)c2C#N)c(CN2CCCC[C@H]2C(=O)O)cc1Cl` [Compound 36], the IC50 was > 10000 nM.

Take `COc1cc(/C=C/c2cccc(-c3ccccc3)c2C#N)c(Cl)cc1CN1CCCC[C@H]1C(=O)O` [Compound 57, (S,E)-1-(5-Chloro-4-(2-(2-cyano-[1,1′-biphenyl]-3-yl)vinyl)-2-methoxybenzyl)piperidine-2-carboxylic acid]: the IC50 is 4.4 nM.

As for `Cc1cc(CN2CCOC[C@H]2C(=O)O)c(OCCCCC#N)cc1/C=C/c1cccc(-c2ccccc2)c1C#N` [Compound 17, (S,E)-4-(4-(2-(2-Cyano-[1,1′-biphenyl]-3-yl)vinyl)-2-(4-cyanobutoxy)-5-methylbenzyl)morpholine-3-carboxylic acid], the IC50 is 4.4 nM.

Turning to `Cc1c(/C=C/c2cc(OCc3cccc(I)c3)c(CN3CCCC[C@H]3C(=O)O)cc2C(F)(F)F)cccc1-c1ccccc1` [Compound 77], the IC50 worked out at 5.91 nM.

Consider `[2H]C([2H])([2H])Oc1cc(/C=C/c2cccc(-c3ccccc3)c2C)c(C(F)(F)F)cc1CN1CCCC[C@H]1C(=O)O` [Compound 60, (S,E)-1-(2-(Methoxy-d3)-4-(2-(2-methyl-[1,1′-biphenyl]-3-yl)vinyl)-5-trifluoromethylbenzyl)piperidine-2-carboxylic acid], for which the IC50 came to 0.59 nM.
